Test [1] has as its system acute visceral pain model in mice. The experiment in a line: acute visceral pain model in mice (acetic acid writhing). As to conditions: n=6. For orientation: An intraperitoneal irritant provokes the stretching counted in writhing tests.
Test [2] has as its system H5N1 viruses. In kind it is cell-based, influenza A virus H5N1. To be noted: 0.001-10 μM; MDCK monolayer; 5,000 pfu/ml; 3 days; FIG. 7 left panel.
Test [3] deals with sciatic nerve injured limb (hyperalgesia). The test is described as follows: thermal test (paw withdrawal latency) after partial sciatic nerve injury. It is filed as in vivo, C57BL/6 male mice. To be noted: 2 mg i.p., N=6; for temperature-induced pain, paw withdrawal latency: injured limb, day 5, 10 and 30 after surgery, vs untreated (DMSO solvent), FIG. 5. As to the method: (§1) Surgical procedures were performed under Halothane (2-3%) anesthesia. Partial sciatic nerve injury was made by tying a tight ligature with 9-0 silk suture around ⅓ to ½ the diameter of the sciatic nerve, as had been described (Malmberg A B and Basbaum A I. Pain 1998; 76:215-222). In mice with sham operation, the sciatic nerve was exposed but not ligated. The mice were subsequently habituated to the test environment for at least 1 hour before thermal test and von Foley hair test. In thermal test, the paw withdrawal latency was determined as an indicator for pain. […], the stimulus intensity was adjusted to give a 10-second withdrawal latency in the normal mouse, while the cutoff in the absence of a response was 20 seconds. The mechanical sensitivity with von Foley hairs was assessed by the up-down paradigm (Chaplan et al, J Neurosci Methods 1994; 53:53-66). The filament for the testing paradigm was chosen to be 0.3-gm.
The peptide 5 as shown in SEQ ID NO: 5 was tested for its anti-hyperalgesia effects in mice receiving sciatic nerve ligation. Results from the thermal test of the sham operated mice and the nerve injured mice were compared in parallel on day 5, 10 and 30 after the surgery.

The subject of test [4] is H1N1 viruses. It is filed as cell-based, influenza A virus H1N1. As to conditions: 0.001-10 μM; MDCK monolayer; 5,000 pfu/ml; 3 days; FIG. 7 right panel.
Test [5] relates to sciatic nerve injured limb (allodynia). The test is described as follows: von Foley hair test (mechanical stimulation) after partial sciatic nerve injury. In kind it is in vivo, C57BL/6 male mice. To be noted: 2 mg i.p., N=6 per time point. On the procedure: as §1
The same animal model in example 3 was used. The peptide 5 as shown in SEQ ID NO: 5 was tested for its anti-allodynia effects in mice receiving sciatic nerve ligation. Results from the mechanical stimulation (von Foley test) of the sham operated mice and the nerve injured mice were compared in parallel on day 5, 10 and 30 after the surgery.

As to `CN1CC[C@]23c4c5ccc(O)c4O[C@H]2[C@@H](O)C=C[C@H]3[C@H]1C5` [morphine, reference compound], the “p, onset of pain, peptide 5 vs this substance” value in test [1] (peptides 2 mg, morphine 1 mg i.p., FIG. 3) is given as > 0.05. Moreover, the “p, total writhing number in 30 minutes, peptide 5 vs this substance” value in test [1] (peptides 2 mg, morphine 1 mg i.p., FIG. 4) is > 0.05.
In the case of “DEAQETAVSSHEQD ((1)..(14) residues 1-14 of rabbit alpha1-antiproteinase F; listed as Oryctolagus cuniculus) [Peptide 5, fragment (residues 1-14) of rabbit α1-antiproteinase F]”, the “inhibition of replication of H5N1 viruses in vitro” value in test [2] was “potent effects in inhibiting the replication”. In test [3] (day 5, 10 or 30), the “p (ANOVA), paw withdrawal latency, untreated vs treated injured ipsilateral limb” value was < 0.005. For the same molecule, the results for the “temperature-induced pain, paw withdrawal latency” value in test [3] and in test [3] (listed as peptide 5) were “significantly reduced the temperature-induced pain” and “significantly increase the tolerance to the heat-induced pain”, respectively. Also, the “onset of the pain induced by intra-peritoneal injection of acetic acid (onset of the 1st writhing)” value in test [1] (2 mg peptide i.p. 30 min before 1 ml 1% acetic acid i.p., control water alone, FIG. 3) was “significant delay in the onset of the pain”. For the same molecule, the “total writhing number in 30 minutes after acetic acid injection” value in test [1] (2 mg peptide i.p. 30 min before 1 ml 1% acetic acid i.p., control water alone, FIG. 4) is recorded as “significant reduction in the total writhing number”; in test [1] (2 mg peptide i.p. 30 min before 1 ml 1% acetic acid i.p., control water alone, FIG. 4, listed as peptide 5), “reduced total writhing episodes”. Besides, the “inhibition of replication of H1N1 viruses in vitro” value in test [4] is recorded as “potent effects in inhibiting the replication”. Moreover, in test [5] (day 5, 10 or 30), the “p (ANOVA), von Foley hair threshold, untreated vs treated injury-ipsilateral limb” value is recorded as < 0.005. Also, the “allodynia, von Foley hair threshold” value in test [5] (injured limb, day 5, 10 and 30 after surgery, vs untreated (pure water), FIG. 6, listed as peptide 5) is “significantly increase the tolerance to mechanical stimuli”.

Values taken from patent US9422336B2 (priority 2012, dated 2016).
